# Test results from US12473304B2, “Heterocyclic PAD4 inhibitors” (BRISTOL-MYERS SQUIBB COMPANY, priority 2020, dated 2025).
# Target: recombinant human PAD4 (Homo sapiens (Human), UniProt Q9UM07)
# Test: RFMS Human PAD4 Functional Assay 2
# Assay type: biochemical
# Conditions: RFMS assay 2; 35 nM recombinant human PAD4, 500 μM TSTGGRQGSHH peptide, 2 mM CaCl2, room temperature 30 minutes; read-out: hPAD4 RFMS IC50
# Protocol: RFMS Human PAD4 Functional Assay 2: Compound Preparation: • Stock compounds were dissolved and stored in 100% DMSO. Compound solutions were prepared via serial dilution at 3-fold intervals in DMSO with top compound concentration at 20 μM in each assay. 0.25 μl of compound solution was transferred from the compound plate to the assay plate by using an acoustic dispenser. Final Assay Conditions: • Total reaction volume: 25 μl • Assay buffer: […] pH 7.4, 200 mM NaCl, 2 mM CaCl2, 5 mM DTT • 35 nM recombinant human PAD4 • 500 μM TSTGGRQGSHH peptide • […] DMSO • Stop solution: 10% formic acid
# Reaction mixtures were incubated at room temperature for 30 minutes. 10 μl each of the reaction mixtures was then mixed with 40 μl of 10% formic acid in a microtiter plate. The plate was frozen at −80° C. before shipping out on dry ice for RapidFire mass spectroscopy analysis.
# Thawed samples were loaded onto the Rapid Fire 300 system (Agilent) wherein they were first sipped for 250 ms and then loaded onto an Agilent “C” (C18) cartridge using a mobile phase of water containing 0.09% formic acid/0.01% trifluoroacetic acid for 3000 ms desalting flowing at a rate of 1.5 ml/min. Once the samples were loaded and washed, a mobile phase of acetonitrile containing 0.09% formic acid/0.01% trifluoroacetic acid was used to elute the samples directly onto a Sciex API4000 triple quadrupole mass spectrometer for 3000 ms at a flow rate of 1.25 ml/min.
# MRM transitions for substrate and product were monitored in positive ESI mode at m/z=562.3/969.7 and m/z=562.8/541.3 respectively. The dwell time for each transition was set at 100 ms, and the ESI voltage was used at 5500 with a source temperature of 650° C. Extracted ion peaks for each transition were integrated using the Rapid Fire Integrator software.
# Chain of recombinant human PAD4 (Q9UM07 whole entry): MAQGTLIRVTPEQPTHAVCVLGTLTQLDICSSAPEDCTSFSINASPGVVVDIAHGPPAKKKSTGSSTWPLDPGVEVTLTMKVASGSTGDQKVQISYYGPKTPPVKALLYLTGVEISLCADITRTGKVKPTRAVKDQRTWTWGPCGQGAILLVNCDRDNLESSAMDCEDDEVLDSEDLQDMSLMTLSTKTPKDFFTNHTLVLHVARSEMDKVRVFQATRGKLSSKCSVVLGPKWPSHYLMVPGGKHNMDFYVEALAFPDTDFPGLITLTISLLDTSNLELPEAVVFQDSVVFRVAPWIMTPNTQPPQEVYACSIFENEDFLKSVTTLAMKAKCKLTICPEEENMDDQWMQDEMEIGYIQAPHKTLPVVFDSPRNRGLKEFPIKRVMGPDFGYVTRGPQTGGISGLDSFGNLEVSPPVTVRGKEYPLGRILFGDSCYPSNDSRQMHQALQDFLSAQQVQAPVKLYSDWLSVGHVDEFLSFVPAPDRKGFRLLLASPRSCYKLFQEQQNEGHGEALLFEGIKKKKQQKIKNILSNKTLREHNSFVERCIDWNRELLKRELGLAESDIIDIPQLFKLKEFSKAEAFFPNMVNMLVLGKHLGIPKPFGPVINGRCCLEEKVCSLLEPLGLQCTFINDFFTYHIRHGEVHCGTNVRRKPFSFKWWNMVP
row,IC50,SMILES
1,1.2 µM,"COc1cc(C(=O)N2CCC[C@@H](N)C2)cc2sc(-c3cc4ccccc4n3CC3CC3)c(CCO)c12 [Example 622, (R)-(3-aminopiperidin-1-yl)(2-(1-(cyclopropylmethyl)-1H-indol-2-yl)-3-(2-hydroxyethyl)-4-methoxybenzo[b]thiophen-6-yl)methanone]"
2,0.395 µM,"COc1cc(C(=O)N2C[C@H](N)C[C@@H](F)C2)cc2sc(-c3cc4ccccc4n3CC3CC3)c(CCO)c12 [Example 623, ((3R,5R)-3-amino-5-fluoropiperidin-1-yl)(2-(1-(cyclopropylmethyl)-1H-indol-2-yl)-3-(2-hydroxyethyl)-4-methoxybenzo[b]thiophen-6-yl)methanone]"
3,0.383 µM,"COc1ccc2cc(-c3sc4cc(C(=O)N5C[C@H](N)C[C@@H](F)C5)cc(OC)c4c3CCO)n(CC3CC3)c2c1 [Example 624, ((3R,5R)-3-amino-5-fluoropiperidin-1-yl)(2-(1-(cyclopropylmethyl)-6-methoxy-1H-indol-2-yl)-3-(2-hydroxyethyl)-4-methoxybenzo[b]thiophen-6-yl)methanone]"
4,2.04 µM,"COc1cc(C(=O)N2CCC[C@@H](N)C2)cc2sc(-c3cc4ccccc4n3CC3CC3)c(CCN)c12 [Example 625, (R)-(3-(2-aminoethyl)-2-(1-(cyclopropylmethyl)-1H-indol-2-yl)-4-methoxybenzo[b]thiophen-6-yl)(3-aminopiperidin-1-yl)methanone]"
5,0.849 µM,"Cc1c(-c2cc3ccccc3n2CC2CC2)sc2cc(C(=O)N3CCC[C@@H](N)C3)cc(CCO)c12 [Example 626, (R)-(3-aminopiperidin-1-yl)(2-(1-(cyclopropylmethyl)-1H-indol-2-yl)-4-(2-hydroxyethyl)-3-methylbenzo[b]thiophen-6-yl)methanone]"
6,0.879 µM,"Cc1c(-c2cc3ccccc3n2CC2CC2)sc2cc(C(=O)N3CCC[C@@H](N)C3)cc(CO)c12 [Example 627, (R)-(3-Aminopiperidin-1-yl)(2-(1-(cyclopropylmethyl)-1H-indol-2-yl)-4-(hydroxymethyl)-3-methylbenzo[b]thiophen-6-yl)methanone]"
7,0.322 µM,"COc1ccc2cc(-c3oc4cc(C(=O)N5C[C@H](N)C[C@@H](F)C5)cc(OC)c4c3CCO)n(CC3CC3)c2c1 [Example 628, ((3R,5R)-3-Amino-5-fluoropiperidin-1-yl)(2-(1-(cyclopropylmethyl)-6-methoxy-1H-indol-2-yl)-3-(2-hydroxyethyl)-4-methoxybenzofuran-6-yl)methanone]"
8,0.785 µM,"COc1cc(C(=O)N2C[C@H](N)C[C@@H](F)C2)cc2oc(-c3cc4cccnc4n3CC3CC3)c(CCO)c12 [Example 629, ((3R,5R)-3-amino-5-fluoropiperidin-1-yl)(2-(1-(cyclopropylmethyl)-1H-pyrrolo[2,3-b]pyridin-2-yl)-3-(2-hydroxyethyl)-4-methoxybenzofuran-6-yl)methanone]"
9,0.288 µM,"COc1cc(C(=O)N2C[C@H](N)C[C@@H](F)C2)cc2oc(-c3cc4ccccc4n3CC3CC3)c(CCO)c12 [Example 630, ((3R,5R)-3-amino-5-fluoropiperidin-1-yl)(2-(1-(cyclopropylmethyl)-1H-indol-2-yl)-3-(2-hydroxyethyl)-4-methoxybenzofuran-6-yl)methanone]"
10,7.58 µM,"CN[C@@H]1C[C@@H](F)CN(C(=O)c2cc(OC)c3c(CCO)c(-c4cc5ccccc5n4CC4CC4)oc3c2)C1 [Example 631, (2-(1-(cyclopropylmethyl)-1H-indol-2-yl)-3-(2-hydroxyethyl)-4-methoxybenzofuran-6-yl)((3R,5R)-3-fluoro-5-(methylamino)piperidin-1-yl)methanone]"
11,0.327 µM,"COc1cc(C(=O)N2C[C@H](N)C[C@@H](F)C2)cc2oc(-c3cc4cccc(OC)c4n3CC3CC3)c(CCO)c12 [Example 632, ((3R,5R)-3-amino-5-fluoropiperidin-1-yl)(2-(1-(cyclopropylmethyl)-7-methoxy-1H-indol-2-yl)-3-(2-hydroxyethyl)-4-methoxybenzofuran-6-yl)methanone]"
12,0.179 µM,"COc1cc(C(=O)N2C[C@H](N)C[C@@H](F)C2)cc2oc(-c3cc4cccc(OCC5CNC(=O)C5)c4n3CC3CC3)c(CCO)c12 (stereo partly drawn) [Example 633, 4-(((2-(6-((3R,5R)-3-amino-5-fluoropiperidine-1-carbonyl)-3-(2-hydroxyethyl)-4-methoxybenzofuran-2-yl)-1-(cyclopropylmethyl)-1H-indol-7-yl)oxy)methyl)pyrrolidin-2-one]"
13,0.209 µM,"COc1cc(C(=O)N2C[C@H](N)C[C@@H](F)C2)cc2oc(-c3cc4cccc(OCCO)c4n3CC3CC3)c(CCO)c12 [Example 634, ((3R,5R)-3-amino-5-fluoropiperidin-1-yl)(2-(1-(cyclopropylmethyl)-7-(2-hydroxyethoxy)-1H-indol-2-yl)-3-(2-hydroxyethyl)-4-methoxybenzofuran-6-yl)methanone]"
14,0.216 µM,"COc1cc(C(=O)N2C[C@H](N)C[C@@H](F)C2)cc2oc(-c3cc4cccc(OCCn5cncn5)c4n3CC3CC3)c(CCO)c12 [Example 635, (2-(7-(2-(1H-1,2,4-triazol-1-yl)ethoxy)-1-(cyclopropylmethyl)-1H-indol-2-yl)-3-(2-hydroxyethyl)-4-methoxybenzofuran-6-yl)((3R,5R)-3-amino-5-fluoropiperidin-1-yl)methanone]"
15,0.277 µM,"COc1cc(C(=O)N2C[C@H](N)C[C@@H](F)C2)cc2oc(-c3cc4cccc(OCC5CNC5)c4n3CC3CC3)c(CCO)c12 [Example 636, ((3R,5R)-3-amino-5-fluoropiperidin-1-yl)(2-(7-(azetidin-3-ylmethoxy)-1-(cyclopropylmethyl)-1H-indol-2-yl)-3-(2-hydroxyethyl)-4-methoxybenzofuran-6-yl)methanone]"
16,0.621 µM,"COc1cc(C(=O)N2C[C@H](N)C[C@@H](F)C2)cc2oc(-c3cc4cccc(OCC5CN(C)C5)c4n3CC3CC3)c(CCO)c12 [Example 637, ((3R,5R)-3-amino-5-fluoropiperidin-1-yl)(2-(1-(cyclopropylmethyl)-7-((1-methylazetidin-3-yl)methoxy)-1H-indol-2-yl)-3-(2-hydroxyethyl)-4-methoxybenzofuran-6-yl)methanone]"
17,0.295 µM,"COc1cc(C(=O)N2C[C@H](N)C[C@@H](F)C2)cc2oc(-c3cc4cccc(OCC5COC5)c4n3CC3CC3)c(CCO)c12 [Example 638, ((3R,5R)-3-amino-5-fluoropiperidin-1-yl)(2-(1-(cyclopropylmethyl)-7-(oxetan-3-ylmethoxy)-1H-indol-2-yl)-3-(2-hydroxyethyl)-4-methoxybenzofuran-6-yl)methanone]"
18,0.243 µM,"COc1cc(C(=O)N2C[C@H](N)C[C@@H](F)C2)cc2oc(-c3cc4cccc(OCc5ncno5)c4n3CC3CC3)c(CCO)c12 [Example 639, (2-(7-((1,2,4-oxadiazol-5-yl)methoxy)-1-(cyclopropylmethyl)-1H-indol-2-yl)-3-(2-hydroxyethyl)-4-methoxybenzofuran-6-yl)((3R,5R)-3-amino-5-fluoropiperidin-1-yl)methanone]"

# Target: human PAD4 (hPAD4) (Homo sapiens (Human), UniProt Q9UM07)
# Test: RFMS Human PAD4 Functional Assay 1
# Assay type: biochemical
# Conditions: RFMS assay 1; 5 nM hPAD4, 250 μM BAEE substrate, 50 μM calcium, 37° C.
# How it was run: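 Citrullination product read by RapidFire triple-quad MRM against a modified-citrulline internal standard, after TCA stop and 30 min phenyl glyoxal step at 37 °C. Reaction: 250 μM BAEE, 5 nM human PAD4, 90 min at 37 °C, pH 7.5 HEPES buffer with 50 μM calcium and 5 μM TPEN, following 30 min compound–enzyme preincubation (max 50 μM).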
# Chain of human PAD4 (hPAD4) (Q9UM07 whole entry): as above
row,IC50,SMILES
1,0.01 µM,"Cc1c(-c2cc3ccnc(OCCn4ccnc4)c3n2CC2CC2)nn2cc(C(=O)N3CCC[C@@H](N)C3)ccc12 [Example 617, (R)-(2-(7-(2-(1H-lmidazol-1-yl)ethoxy)-1-(cyclopropylmethyl)-1H-pyrrolo[2,3-c]pyridin-2-yl)-3-methylpyrazolo[1,5-a]pyridin-6-yl)(3-aminopiperidin-1-yl)methanone]"
2,0.45 µM,"COc1cc(C(=O)N2C[C@H](N)C[C@@H](F)C2)cn2nc(-c3cc4ccnc(OCCn5cnnc5)c4n3C)c(C)c12 [Example 620, (2-(7-(2-(4H-1,2,4-Triazol-4-yl)ethoxy)-1-methyl-1H-pyrrolo[2,3-c]pyridin-2-yl)-4-methoxy-3-methylpyrazolo[1,5-a]pyridin-6-yl)((3R,5R)-3-amino-5-fluoropiperidin-1-yl)methanone]"
3,0.14 µM,"COc1cc(C(=O)N2C[C@H](N)C[C@@H](F)C2)cn2nc(-c3sc4cccc(-c5cnn(CCO)c5)c4c3CC3CC3)c(C)c12 [Example 621, ((3R,5R)-3-Amino-5-fluoropiperidin-1-yl)(2-(3-(cyclopropylmethyl)-4-(1-(2-hydroxyethyl)-1H-pyrazol-4-yl)benzo[b]thiophen-2-yl)-4-methoxy-3-methylpyrazolo[1,5-a]pyridin-6-yl)methanone]"
